Laboratory results reported in PubChem BioAssay (NCI).
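The concentration for 50% growth inhibition is given as GI50. Definition used: TGI = concentration required for complete inhibition of growth.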

Experiments:
Test in all cases: DTP human tumour cell line panel, 384-well format
[1] = test system: 786-0 renal
[2] = test system: A498 renal
[3] = test system: A549 NSCLC
[4] = test system: ACHN renal
[5] = test system: BT-549 breast
[6] = test system: CAKI-1 renal
[7] = test system: CCRF-CEM leukemia
[8] = test system: COLO 205 colon
[9] = test system: DU-145 prostate
[10] = test system: HCC-2998 colon
[11] = test system: HCT-116 colon
[12] = test system: HCT-15 colon
[13] = test system: HL-60(TB) leukemia
[14] = test system: HOP-62 NSCLC
[15] = test system: HOP-92 NSCLC
[16] = test system: HT29 colon
[17] = test system: IGROV1 ovarian
[18] = test system: K-562 leukemia
[19] = test system: KM12 colon
[20] = test system: LOX IMVI melanoma
[21] = test system: M14 melanoma
[22] = test system: MALME-3M melanoma
[23] = test system: MCF7 breast
[24] = test system: MDA-MB-231 breast
[25] = test system: MDA-MB-435 melanoma
[26] = test system: MDA-MB-468 breast
[27] = test system: MOLT-4 leukemia
[28] = test system: NCI-H226 lung
[29] = test system: NCI-H23 lung
[30] = test system: NCI-H322M lung
[31] = test system: NCI-H460 NSCLC
[32] = test system: NCI-H522 lung
[33] = test system: NCI/ADR-RES ovarian
[34] = test system: OVCAR-3 ovarian
[35] = test system: OVCAR-4 ovarian
[36] = test system: OVCAR-5 ovarian
[37] = test system: OVCAR-8 ovarian
[38] = test system: PC-3 prostate
[39] = test system: RPMI-8226 leukemia
[40] = test system: RXF 393 renal
[41] = test system: SF-268 CNS
[42] = test system: SF-295 CNS
[43] = test system: SF-539 CNS
[44] = test system: SK-MEL-2 melanoma
[45] = test system: SK-MEL-28 melanoma
[46] = test system: SK-MEL-5 melanoma
[47] = test system: SK-OV-3 ovarian
[48] = test system: SN12C renal
[49] = test system: SNB-19 CNS
[50] = test system: SR leukemia
[51] = test system: SW-620 colon
[52] = test system: T-47D breast
[53] = test system: TK-10 renal
[54] = test system: U251 glioblastoma
[55] = test system: UACC-257 melanoma
[56] = test system: UACC-62 melanoma
[57] = test system: UO-31 renal

C=CC(=O)N1C[C@@H]2CCOc3c(Cl)c(-c4c(O)cccc4F)c(F)c4ncnc(c34)N2C[C@H]1C
GI50 [1]: 1.73 µM | TGI [1]: 3.91 µM | GI50 [2]: 2.27 µM | TGI [2]: 8.26 µM | GI50 [3]: 2.24 µM | TGI [3]: 6.75 µM | GI50 [4]: 2.58 µM | TGI [4]: 7.93 µM | GI50 [5]: 1.26 µM | TGI [5]: 2.97 µM | GI50 [6]: 1.56 µM | TGI [6]: 6.43 µM | GI50 [7]: 1.6 µM | TGI [7]: 3.05 µM | GI50 [8]: 2.01 µM | TGI [8]: 4.52 µM | GI50 [9]: 1.95 µM | TGI [9]: 5.12 µM | GI50 [10]: 1.57 µM | TGI [10]: 3.15 µM | GI50 [11]: 2.2 µM | TGI [11]: 5.95 µM | GI50 [12]: 2.63 µM | TGI [12]: 10.6 µM | GI50 [13]: 1.29 µM | TGI [13]: 2.62 µM | GI50 [14]: 0.0309 µM | TGI [14]: 4.75 µM | GI50 [15]: 2.95 µM | TGI [15]: 9.36 µM | GI50 [16]: 2.54 µM | TGI [16]: 6.84 µM | GI50 [17]: 1.7 µM | TGI [17]: 4.64 µM | GI50 [18]: 1.74 µM | TGI [18]: 3.68 µM | GI50 [19]: 1.88 µM | TGI [19]: 4.27 µM | GI50 [20]: 4.18 µM | TGI [20]: 11.4 µM | GI50 [21]: 2.62 µM | TGI [21]: 10.1 µM | GI50 [22]: 1.93 µM | TGI [22]: 7.88 µM | GI50 [23]: 3.1 µM | TGI [23]: 11.6 µM | GI50 [24]: 2.61 µM | TGI [24]: 8.92 µM | GI50 [25]: 1.91 µM | TGI [25]: 3.96 µM | GI50 [26]: 1.68 µM | TGI [26]: 3.62 µM | GI50 [27]: 1.16 µM | TGI [27]: 2.4 µM | GI50 [28]: 2.15 µM | TGI [28]: 5.78 µM | TGI [29]: 0.0227 µM | GI50 [30]: 6.66 µM | TGI [30]: 19.4 µM | GI50 [31]: 2.34 µM | TGI [31]: 5.34 µM | GI50 [32]: 1.63 µM | TGI [32]: 3.54 µM | GI50 [33]: 1.76 µM | TGI [33]: 3.53 µM | GI50 [34]: 1.55 µM | TGI [34]: 3.04 µM | GI50 [35]: 1.96 µM | TGI [35]: 4.75 µM | GI50 [36]: 4.71 µM | TGI [36]: 17 µM | GI50 [37]: 1.64 µM | TGI [37]: 3.06 µM | GI50 [38]: 3.04 µM | TGI [38]: 10.6 µM | GI50 [39]: 0.232 µM | TGI [39]: 1.28 µM | GI50 [40]: 0.0601 µM | TGI [40]: 0.407 µM | GI50 [41]: 2.1 µM | TGI [41]: 4.86 µM | GI50 [42]: 7.48 µM | TGI [42]: 20.3 µM | GI50 [43]: 1.8 µM | TGI [43]: 3.45 µM | GI50 [44]: 1.22 µM | TGI [44]: 2.63 µM | GI50 [45]: 2.36 µM | TGI [45]: 8.43 µM | GI50 [46]: 1.62 µM | TGI [46]: 3.41 µM | GI50 [47]: 2.19 µM | TGI [47]: 8.03 µM | GI50 [48]: 1.96 µM | TGI [48]: 4.23 µM | GI50 [49]: 3.76 µM | TGI [49]: 16 µM | GI50 [50]: 1.07 µM | TGI [50]: 2.28 µM | GI50 [51]: 2.27 µM | TGI [51]: 4.07 µM | GI50 [52]: 1.89 µM | TGI [52]: 5.47 µM | GI50 [53]: 2.4 µM | TGI [53]: 10.7 µM | GI50 [54]: 2.43 µM | TGI [54]: 7.66 µM | GI50 [55]: 1.29 µM | TGI [55]: 6.42 µM | GI50 [56]: 1.41 µM | TGI [56]: 5.5 µM | GI50 [57]: 1.92 µM | TGI [57]: 9.16 µM
